Organism: Rattus norvegicus
Assay: Open TG-GATES - Regimen: Single
Assay type: toxicity, organism-based, Sprague-Dawley
Set-up: regimen Single, gender Male, age 6 weeks
Conditions: in vivo, iv, route intravenous injection; for IP / K / LDH / Na / PL / RALB / TBIL / TC / TG / TP / gamma-GTP / A/G / ALP / ALT / AST / BUN / CRE / Ca / Cl / DBIL / GLC: tissue Plasma; for APTT / Bas / Eos / Fbg / Hb / Ht / Lym / MCH / MCHC / MCV / Mono / Neu / PT / Plat / RBC / Ret / WBC: tissue Blood; for KIDNEY_L / KIDNEY_R / KIDNEY_TOTAL: tissue Kidney; for LIVER: tissue Liver
[1] = 2 mg/kg, 6 h, dose level Middle
[2] = 2 mg/kg, 9 h, dose level Middle
[3] = 2 mg/kg, 24 h, dose level Middle

C[C@@H]1[C@H](O)[C@@H](C)/C=C/C=C/C=C/C=C/C=C/C=C/C=C/[C@H](O[C@@H]2O[C@H](C)[C@@H](O)[C@H](N)[C@@H]2O)C[C@@H]2O[C@](O)(C[C@@H](O)C[C@@H](O)[C@H](O)CC[C@@H](O)C[C@@H](O)CC(=O)O[C@H]1C)C[C@H](O)[C@H]2C(=O)O [AMPHOTERICIN B]
IP [1]: 11.3 mg/dL | K [1]: 5.5 meq/L | LDH [1]: 531 IU/L | Na [1]: 142.5 meq/L | PL [1]: 116.2 mg/dL | RALB [1]: 2.5 g/dL | TBIL [1]: 0.0675 mg/dL | TC [1]: 69 mg/dL | TG [1]: 41 mg/dL | TP [1]: 5.5 g/dL | gamma-GTP [1]: 3.2 IU/L | TERMINAL_BW [2]: 209.6 g | APTT [2]: 16.5 s | Bas [2]: 0% | Eos [2]: 0.2% | Fbg [2]: 288.2 mg/dL | Hb [2]: 13.5 g/dL | Ht [2]: 37.5% | Lym [2]: 59% | MCH [2]: 21.2 pg | MCHC [2]: 36% | MCV [2]: 59 fL | Mono [2]: 3.5% | Neu [2]: 35.8% | PT [2]: 12.8 s | Plat [2]: 147.9 x10_4/uL | RBC [2]: 634.8 x10_4/ul | Ret [2]: 7.8% | WBC [2]: 117.4 x10_2/uL | KIDNEY_L [2]: 1 g | KIDNEY_R [2]: 1 g | KIDNEY_TOTAL [2]: 2 g | LIVER [2]: 8.3 g | A/G [2]: 0.8 | ALP [2]: 1444 IU/L | ALT [2]: 39.5 IU/L | AST [2]: 80.8 IU/L | BUN [2]: 29.8 mg/dL | CRE [2]: 0.2 mg/dL | Ca [2]: 10.8 mg/dL | Cl [2]: 109.2 meq/L | DBIL [2]: 0.0225 mg/dL | GLC [2]: 171.5 mg/dL | IP [2]: 10.7 mg/dL | K [2]: 3.8 meq/L | LDH [2]: 64.8 IU/L | Na [2]: 145 meq/L | PL [2]: 139.8 mg/dL | RALB [2]: 2.5 g/dL | TBIL [2]: 0.0875 mg/dL | TC [2]: 83.5 mg/dL | TG [2]: 22.8 mg/dL | TP [2]: 5.6 g/dL | gamma-GTP [2]: 1.5 IU/L | TERMINAL_BW [3]: 219.6 g | APTT [3]: 14.8 s | Bas [3]: 0% | Eos [3]: 1% | Fbg [3]: 363 mg/dL | Hb [3]: 13.6 g/dL | Ht [3]: 39.2% | Lym [3]: 74% | MCH [3]: 20.6 pg | MCHC [3]: 34.7% | MCV [3]: 59.2 fL | Mono [3]: 2.7% | Neu [3]: 21.7% | PT [3]: 12.3 s | Plat [3]: 150.1 x10_4/uL | RBC [3]: 663 x10_4/ul | Ret [3]: 6.5% | WBC [3]: 92.3 x10_2/uL | KIDNEY_L [3]: 1 g | KIDNEY_R [3]: 1 g | KIDNEY_TOTAL [3]: 2 g | LIVER [3]: 10.1 g | A/G [3]: 0.8 | ALP [3]: 1322 IU/L | ALT [3]: 32.3 IU/L | AST [3]: 65 IU/L | BUN [3]: 22.7 mg/dL | CRE [3]: 0.2 mg/dL | Ca [3]: 11 mg/dL | Cl [3]: 106.7 meq/L | DBIL [3]: 0.0133 mg/dL | GLC [3]: 171.3 mg/dL | IP [3]: 7.6 mg/dL | K [3]: 4.3 meq/L | LDH [3]: 57.3 IU/L | Na [3]: 144 meq/L | PL [3]: 148.7 mg/dL | RALB [3]: 2.6 g/dL | TBIL [3]: 0.0567 mg/dL | TC [3]: 91.3 mg/dL | TG [3]: 64.7 mg/dL | TP [3]: 5.9 g/dL | gamma-GTP [3]: 1.3 IU/L | TERMINAL_BW (4 mg/kg, 24 h, dose level High): 207 g | APTT (4 mg/kg, 24 h, dose level High): 12.7 s | Bas (4 mg/kg, 24 h, dose level High): 0% | Eos (4 mg/kg, 24 h, dose level High): 1% | Fbg (4 mg/kg, 24 h, dose level High): 536 mg/dL | Hb (4 mg/kg, 24 h, dose level High): 14.3 g/dL | Ht (4 mg/kg, 24 h, dose level High): 37.3% | Lym (4 mg/kg, 24 h, dose level High): 55% | MCH (4 mg/kg, 24 h, dose level High): 21.1 pg | MCHC (4 mg/kg, 24 h, dose level High): 38.3% | MCV (4 mg/kg, 24 h, dose level High): 55.1 fL | Mono (4 mg/kg, 24 h, dose level High): 2% | Neu (4 mg/kg, 24 h, dose level High): 42% | PT (4 mg/kg, 24 h, dose level High): 11.1 s | Plat (4 mg/kg, 24 h, dose level High): 105.2 x10_4/uL | RBC (4 mg/kg, 24 h, dose level High): 676 x10_4/ul | Ret (4 mg/kg, 24 h, dose level High): 6.3% | WBC (4 mg/kg, 24 h, dose level High): 121.2 x10_2/uL | KIDNEY_L (4 mg/kg, 24 h, dose level High): 1.2 g | KIDNEY_R (4 mg/kg, 24 h, dose level High): 1.1 g | KIDNEY_TOTAL (4 mg/kg, 24 h, dose level High): 2.4 g | LIVER (4 mg/kg, 24 h, dose level High): 8.7 g | A/G (4 mg/kg, 24 h, dose level High): 0.7 | ALP (4 mg/kg, 24 h, dose level High): 1402 IU/L | ALT (4 mg/kg, 24 h, dose level High): 227 IU/L | AST (4 mg/kg, 24 h, dose level High): 699 IU/L | BUN (4 mg/kg, 24 h, dose level High): 53 mg/dL | CRE (4 mg/kg, 24 h, dose level High): 0.3 mg/dL | Ca (4 mg/kg, 24 h, dose level High): 11 mg/dL | Cl (4 mg/kg, 24 h, dose level High): 108 meq/L | DBIL (4 mg/kg, 24 h, dose level High): 0.03 mg/dL | GLC (4 mg/kg, 24 h, dose level High): 160 mg/dL | IP (4 mg/kg, 24 h, dose level High): 8 mg/dL | K (4 mg/kg, 24 h, dose level High): 4.1 meq/L | LDH (4 mg/kg, 24 h, dose level High): 117 IU/L | Na (4 mg/kg, 24 h, dose level High): 146 meq/L | PL (4 mg/kg, 24 h, dose level High): 111 mg/dL | RALB (4 mg/kg, 24 h, dose level High): 2.5 g/dL | TBIL (4 mg/kg, 24 h, dose level High): 0.1 mg/dL | TC (4 mg/kg, 24 h, dose level High): 76 mg/dL | TG (4 mg/kg, 24 h, dose level High): 13 mg/dL | TP (4 mg/kg, 24 h, dose level High): 6.1 g/dL | gamma-GTP (4 mg/kg, 24 h, dose level High): 2 IU/L
